Data from US8088567B2, “Human immortalised neural precursor cell line” (NsGene A/S, priority 2005, dated 2012).
Entries after “also recorded” stand apart in the source; their conditions may differ.

How the values were obtained:
[1] = tested on: U87MG xenograft tumor; assay: In vivo migration of GFP-expressing NGC-407 cells in nude rat model of human glioblastoma multiforme; set-up: species or system nude rats; conditions: PB 250 mg/kg intraperitoneally twice daily, 2 weeks
Protocol: 8-9 weeks old athymic nude male rats (rnu/rnu; Harlan, Germany) with an average weight of 200 g were used in our human glioblastoma multiforme xenograft model. They were housed in a group of 3 in standardized big cages in 50-70% relative humidity and 20°-24° C. temperature with 12/12 day/night variation. Food (Ad libitum), water and other materials used for these immunocompromised animals were autoclaved before use. Animals were anesthesitized by isoflurane inhalation and the head was fixed in a stereo tactic apparatus. Under microscopic guidance a burr hole of 1 mm diameter was made over the right hemisphere, 2 mm right lateral to the bregma. Using a Hamilton syringe of 5 μl volume 1.5×10^5 U87MG cells in 3 μl volume were slowly injected through the burr hole at a depth of 3.5 mm from the surface to reach the corpus callosum.
2×10^6 neural progenitors (NGC-407) recombinantly expressing green fluorescent protein (GFP), were plated in a 100 mm Petri dish and were grown as neurospheres for 48 hours. […]
Histopathological analysis of the sections was carried out by haematoxylin and eosin staining to determine the size and location of the implants. […] Immunohistochemically the tumor location was determined by correlating with the histological analysis and by the cell density while the sections were counter-stained with hoechst.

[2] = tested on: NGC-407 cells; assay: Gap junction communication by fluorescent dye transfer between NGC-407 cells; format: cell-based, human; conditions: differentiating and proliferating conditions
Protocol: (§1) This was analyzed semi-quantitatively/qualitatively by using fluorescent dye transfer techniques. It is evident that the GJC is enhanced by 4-PB both under differentiating and proliferating conditions in vitro. This is relevant since the in vivo environment may present transplanted cells with conditions that stimulate neither differentiation nor proliferation.

[3] = tested on: NGC-407 cells and U87 gioblastoma cells; assay: Gap junction communication by fluorescent dye transfer, NGC-407 and U87; format: cell-based, human; conditions: differentiating and proliferating conditions
Protocol: as §1

[4] = tested on: NGC-407 & U343MGa-cl 2:6 cells; assay: Gap junction communication by calcein dye transfer, NGC-407 to U343MGa-cl 2:6; format: cell-based, human; conditions: PB 0.5 mM donor, 4 mM recipient for 72 hours, 4 hours co-culture at 0.5 mM
Protocol: Donor human embryonic neural stem cells (NGC-407) and recipient human glioblastoma cells (U343MGa-cl 2:6) were grown each in 2 separate 35 mm Petri dishes (1×10^5/dish). For NGC-407 cells the plates were poly-L-lysine (Sigma) coated and the medium was DMEM/F12 1:1 with glutamax I (Invitrogen) containing 40 ng/ml bFGF2 (R&D Systems), 20 ng/ml rhEGF, 1× N2 supplement, 1× non-essential amino acid, 5 mM HEPES buffer solution (from Invitrogen), 0.5% human serum albumin and 6 g/L D-glucose (from Sigma). The recipient cells were grown in DMEM containing 10% FBS, 100 units/ml penicillin and 100 μg/ml streptomycin (from Invitrogen). When the cells were approx. 60% confluent, treatment with 0 & 0.5 mM 4-Phenyl Butyrate (PB) for donor cells and 0 & 4 mM PB for recipient cells was started and continued for 72 hours. The donor cells were then double labelled by incubating with 1 ml of cell medium containing 10 μM Dil and 5 μM Calcein-AM (Molecular Probes) for 20 min. After aspiration of the dye containing medium the cells were washed 4-5 times with pure medium and then with PBS to get rid of free dye. After a very brief trypsinization the cells were centrifuged and resuspended in co-culture medium (donor cell medium including 0.5% FBS). The medium of recipient cells was replaced by co-culture medium and 5×10^4 donor cells were added to one recipient plate. […]

[5] = tested on: NGC-407 wt cells; assay: Cell killing effect of AZT, XTT viability assay, parental cells; format: cell-based, human; conditions: parental NGC-407 cell line, 120 hours drug exposure
Protocol: Cell culture The human neuronal progenitor cell line NGC-407 was cultured in DMEM/F12 (Gibco #31331-028) conditioned with Human Serum Albunim (HSA) (Sigma #A 1653), N2 (Gibco #17502-048), B27 (Gibco #17504-044), Glucose (Sigma #G8769), bFGF (R&D Systems #233-FB), EGF (R& Systems #236-EG), MEM NEAA, x100 (Gibco #11140-035), HEPES (Gibco #15630-056), in poly-L-lysine (Sigma #P4832) coated flasks/Plates (CM-Lab, Denmark). Cells were grown at 37° C. and 5% CO2 in a humidified incubator.
(§2) Exponentially growing NGC-407 wt and tomato kinase (ZG561) expressing cells were plated at a density of 5.000 cells/well in poly-L-lysine coated 96-well plates in 100 μl conditioned medium and incubated 37° C. in a humidified incubator with a gas phase of 5% CO2. After 48 hours, medium was replaced with medium containing varying concentrations of AZT starting at 20 mM and down. […] The chemo resistance of cultured cells was monitored by the surviving cell fraction as a function of the drug concentration. Viability of cells was determined via the colorimetric XTT assay (XTT kit II-Roche, cat no. 1465015). […] The absorbance at 450 and 690 nm was determined using an ELISA plate reader (Ascent, ThermoLab). The IC50 value (50% inhibition concentration) of the investigated compound was calculated as the mean value of each experiment using SigmaPlot® (Dyrberg Trading, DK).

[6] = tested on: tomato kinase (ZG561) expressing NGC-407 cells; assay: Cell killing effect of AZT, XTT viability assay, tomato kinase expressing cells; format: cell-based, human
Protocol: The constructed pLHCXZ (Clontech) plasmid vector pZG561 (coding for a Tomato Thymidine kinase I with a C-terminal deletion of 26 amino acids, WO 03/100045) and pVPack-GP (Stratagene) plus pVPack-VSV-G (Stratagene) were transfected into the packaging cells using LipofectAMINE PLUS (Invitrogen-Life Technologies, Inc.) according to the protocol provided by the supplier. The medium from the transfected cells, cultured in DMEM (Invitrogen), was collected 48 and 72 hours post transfection, filtered through a 0.45 μm filter, pelleted by ultracentrifugation (50.000g, 90 min at 4° C.) and dissolved in DMEM (Invitrogen). The titer of the virus was determined by reverse transcriptase assay. […]
The day before transduction, 1×10^6 cells/well were seeded in 6-well plates. […] Subsequently cells were ready for experiments.
as §2, with “CO2.” for “CO2. After 48 hours, medium was replaced with medium containing varying concentrations of AZT starting at 20 mM and down.”, “The IC50 value (50% inhibition concentration) of the investigated compound was calculated as the mean value of each experiment using SigmaPlot® (Dyrberg Trading, DK).” left out

[7] = tested on: transfected cell line; conditions: cited from earlier work

## O=C(O)CCCc1ccccc1 [4-PB, 4-Phenyl Butyrate]
[1]
  GFP staining / GFP positive cells around and inside the tumor: enhanced the GFP staining; also recorded: increases the number of GFP positive cells
[2]
  gap junction communication (GJC) between NGC-407 cells: enhances the gap junction communication
[3]
  gap junction communication (GJC) between NGC-407 cells and U87 gioblastoma cells: enhances the gap junction communication
[4]
  gap junction communication NGC-407 to U343MGa-cl 2:6 (calcein transfer): significantly enhanced
[4]; listed as PB
  gap junction communication NGC-407 to U343MGa-cl 2:6 (calcein transfer): number of green recipient cells has also been significantly increased

## Cc1cn([C@H]2C[C@H](N=[N+]=[N-])[C@@H](CO)O2)c(=O)[nH]c1=O [AZT]
[5]
  IC50: 11.8 mM
[6]; Hygromycin selected ZG561 (tomato TK) NGC-407 cells, 120 hours drug exposure, XTT
  IC50: 0.051 mM
[6]; ZG561 cells versus parental cells
  Sensitisation of NGC-407 cells towards AZT by Tomato Thymidine kinase: 230 fold

B1: B5: mutant Drosophila melanogaster deoxyribonucleoside kinase variant, SEQ ID NO 5 (protein)
chain: MAEAASCARKGTKYAEGTQPFTVLIEGNIGSGKTTYLNHFEKYKNDICLLTEPVEKWRNVNGVNLLELMYKDPKKWAMPFQSYATLTMLQSHTAPTNKKLKIMERSIFSARYCFVENMRRNGSLEQGMYNTLEEWYKFIEESIHVQADLIIYLRTSPEVAYERIRQRARSEESCVPLKYLQELHELHEDWLIHQRRPQSCKVLVLDADLDLENIGTEYQRSESSIFDAISSNQQPSPVPVSPSKRQRVAR
modifications: Drosophila melanogaster
[7]
  degree of activation for gemcitabine relative to wild type Dm dNK: approximately 50 times
